{"source": "patent US20030078272A1", "about": "“Methods of use of fluoroquinolone compounds against ciprofloxacin-resistant and ciprofloxacin-sensitive pathogenic bacteria” (SmithKline Beecham Corporation, priority 1999, published 2003)", "assay_type_in_all_cases": "cell-based, Streptococcus pneumoniae", "key": {"pneumococci [1]": {"system": "pneumococci", "experiment": "E-test MICs", "conditions": "200 strains", "procedure": "Cultures were maintained at −70° C. in double-strength skim milk (Difco Laboratories, Detroit, Mich.). Gemifloxacin susceptibility powder, disks and E-tests (AB Biodisk, Solna, Sweden) were obtained from SmithKline Beecham Laboratories, Collegeville, Pa., USA. Standard methodology was used (Clark, et al., J. Clin. Microbiol. 36:3579-3584, 1998). Mueller-Hinton plates supplemented with 5% sheep blood (BBL Microbiology Systems, Cockeysville, Md., USA) were inoculated with a 0.5 McFarland suspension harvested from plates, and E-test strips (AB Biodisk, Solna, Sweden) placed on each. After overnight incubation at 35° C., the MIC was read as the intersect where the ellipse of growth inhibition intersects the strip. E-test MICs were performed both in air and in CO2. E-test MICs were rounded up to the next highest doubling dilution."}, "pneumococci [2]": {"system": "pneumococci", "experiment": "MIC testing, all methods together (agar dilution, microdilution, E-test)", "conditions": "agar dilution and microdilution in air, E-test in air and CO2, all strains", "procedure": "(§1) These were performed (Jacobs, et al., Clin. Infect. Dis. 15:119-127, 1992 and Clark, et al., J. Clin. Microbiol. 36:3579-3584, 1998) on Mueller-Hinton agar supplemented with 5% sheep blood, incorporating compounds at concentrations from 0.002-8 μg/ml in doubling dilutions. Inocula were prepared by suspending growth from overnight cultures in Mueller-Hinton broth to a turbidity of a 0.5 McFarland standard. Final inocula contained 10^4 organisms/spot. Plates were inoculated with a Steers replicator with 3 mm inoculating pins, and incubated overnight at 35° C. in ambient air. The lowest concentration of antibiotic showing no growth was read as the MIC. Quality control strains—Staphylococcus aureus […] and Streptococcus pneumoniae ATCC 49619—were included in each run.\n(§2) These were determined by the method recommended by the NCCLS, (Methods for Dilution Antimicrobial Susceptibility Tests for Bacteria that Grow Aerobically, 4th Edition, NCCLS, Villanova, Pa., 1997) using cation-adjusted Mueller-Hinton broth (Difco Laboratories) supplemented with 5% lysed defibrinated horse blood. Trays were prepared in-house. Suspensions with a turbidity equivalent to that of a 0.5 McFarland standard were prepared by suspending growth from blood agar plates in 2 ml Mueller-Hinton broth. Suspensions were further diluted 1:10 to obtain a final inoculum (10 μL) containing 5×10^5 CFU/mL. Trays were incubated 20-24 hours in ambient air at 35° C. Standard quality control strains (as above) were included in each run.\nStandard methodology was used (Clark, et al., J. Clin. Microbiol. 36:3579-3584, 1998). Mueller-Hinton plates supplemented with 5% sheep blood (BBL Microbiology Systems, Cockeysville, Md., USA) were inoculated with a 0.5 McFarland suspension harvested from plates, and E-test strips (AB Biodisk, Solna, Sweden) placed on each. After overnight incubation at 35° C., the MIC was read as the intersect where the ellipse of growth inhibition intersects the strip. E-test MICs were performed both in air and in CO2. E-test MICs were rounded up to the next highest doubling dilution."}, "pneumococci [3]": {"system": "pneumococci", "experiment": "Disk diffusion, 5 μg gemifloxacin disks", "conditions": "for zone of inhibition at 5 µg/disc: Streptococcus pneumoniae, 5 μg disk, read-out: zone diameter", "procedure": "(§3) Cultures were maintained at −70° C. in double-strength skim milk (Difco Laboratories, Detroit, Mich.). Gemifloxacin susceptibility powder, disks and E-tests (AB Biodisk, Solna, Sweden) were obtained from SmithKline Beecham Laboratories, Collegeville, Pa., USA.\nThis was by standard NCCLS methodology (Performance Standards for Antimicrobial Disk Susceptibility Tests, 6th Edition, NCCLS, Villanova, Pa., 1997) using 5 μg gemifloxacin disks (BBL) and Mueller-Hinton plates supplemented with 5% sheep blood (BBL), inoculated with a 0.5 McFarland suspension. After overnight incubation in both air and 5% CO2 at 35° C., zone diameters were measured with calipers."}, "pneumococci [4]": {"system": "pneumococci", "experiment": "Agar dilution MICs", "conditions": "for MIC50 / MIC90: Streptococcus pneumoniae", "procedure": "as §3, §1"}, "pneumococci [5]": {"system": "pneumococci", "experiment": "Microdilution MICs (NCCLS)", "conditions": "microdilution (air), 200 strains", "procedure": "as §2, with “Cultures were maintained at −70° C. in double-strength skim milk (Difco Laboratories, Detroit, Mich.). Gemifloxacin susceptibility powder, disks and E-tests (AB Biodisk, Solna, Sweden) were obtained from SmithKline Beecham Laboratories, Collegeville, Pa., USA. These” for “These”"}, "[6]": {"conditions": "agar dilution (air), all 200 strains"}, "[7]": {"conditions": "agar dilution, 39 ciprofloxacin-resistant strains (ciprofloxacin MIC ≧8.0 μg/ml)"}, "[8]": {"conditions": "agar dilution, 161 ciprofloxacin-susceptible strains (ciprofloxacin MIC ≦4.0 μg/ml)"}}, "note": "Where two headings read alike, the source gives them in different places.", "data": [{"smiles": "CO/N=C1\\CN(c2nc3c(cc2F)c(=O)c(C(=O)O)cn3C2CC2)CC1CN", "note": "(racemic) [Gemifloxacin, (R,S)-7-(3-aminomethyl-4-methoxyiminopyrrolidin-1-yl)-1-cyclopropyl-6-fluoro-4-oxo-1,4-dihydro-1,8-naphthyridine-3-carboxylic acid]", "values": [{"measurement": "MIC50", "setting": "pneumococci [1]; E-test (CO2)", "result": 0.016, "unit": "µg/mL"}, {"measurement": "MIC range", "setting": "pneumococci [1]; E-test (CO2)", "result": "0.008 to 0.5", "unit": "µg/mL"}, {"measurement": "MIC range", "setting": "pneumococci [1]; E-test (CO2), listed as gemifloxacin", "result": "0.00 to 0.5", "unit": "µg/mL"}, {"measurement": "MIC range", "setting": "pneumococci [1]; E-test (air)", "result": "0.008 to 0.5", "unit": "µg/mL"}, {"measurement": "MIC90", "setting": "pneumococci [1]; Streptococcus pneumoniae, E-test (CO2)", "result": 0.25, "unit": "µg/mL"}, {"measurement": "MIC90", "setting": "pneumococci [1]; Streptococcus pneumoniae, E-test (air)", "result": 0.125, "unit": "µg/mL"}, {"measurement": "MIC50", "setting": "pneumococci [1]; Streptococcus pneumoniae, E-test (air), read-out: MIC50", "result": 0.016, "unit": "µg/mL"}, {"measurement": "MIC50s, range over methods", "setting": "pneumococci [2]", "result": "0.016 to 0.03", "unit": "µg/mL"}, {"measurement": "MIC90s, range over methods", "setting": "pneumococci [2]", "result": "0.125 to 0.25", "unit": "µg/mL"}, {"measurement": "MIC range over all methods", "setting": "pneumococci [2]", "result": "0.004 to 1.0", "unit": "µg/mL"}, {"measurement": "zone of inhibition at 5 µg/disc", "setting": "pneumococci [3]; in CO2, ciprofloxacin-resistant strains, full range", "result": "18 to 31", "unit": "mm"}, {"measurement": "zone of inhibition at 5 µg/disc", "setting": "pneumococci [3]; in CO2, ciprofloxacin-resistant strains, most strains", "result": "21 to 26", "unit": "mm"}, {"measurement": "zone of inhibition at 5 µg/disc", "setting": "pneumococci [3]; in air, quinolone-resistant strains, most strains", "result": "< 31", "unit": "mm"}, {"measurement": "zone of inhibition at 5 µg/disc", "setting": "pneumococci [3]; incubated in CO2, all ciprofloxacin-susceptible strains", "result": "≥ 26", "unit": "mm"}, {"measurement": "zone of inhibition at 5 µg/disc", "setting": "pneumococci [3]; incubated in air, quinolone-susceptible strains", "result": "≥ 28", "unit": "mm"}, {"measurement": "zone diameter", "setting": "pneumococci [3]; most quinolone-susceptible strains", "result": "> 25", "unit": "mm"}, {"measurement": "zone diameter in air wider than in CO2", "setting": "pneumococci [3]; most strains, air versus CO2", "result": "1-3 mm"}, {"measurement": "MIC50", "setting": "pneumococci [4]; [6]", "result": 0.03, "unit": "µg/mL"}, {"measurement": "MIC90", "setting": "pneumococci [4]; [6]", "result": 0.25, "unit": "µg/mL"}, {"measurement": "MIC50", "setting": "pneumococci [4]; [7]", "result": 0.25, "unit": "µg/mL"}, {"measurement": "MIC90", "setting": "pneumococci [4]; [7]", "result": 0.5, "unit": "µg/mL"}, {"measurement": "MIC50", "setting": "pneumococci [4]; [8]", "result": 0.03, "unit": "µg/mL"}, {"measurement": "MIC90", "setting": "pneumococci [4]; [8]", "result": 0.03, "unit": "µg/mL"}, {"measurement": "MIC range", "setting": "pneumococci [4]; [6]", "result": "0.004 to 1.0", "unit": "µg/mL"}, {"measurement": "MIC range", "setting": "pneumococci [4]; agar dilution (air), all 200 strains, listed as gemifloxacin", "result": "0.004 to 1", "unit": "µg/mL"}, {"measurement": "MIC range", "setting": "pneumococci [4]; [7]", "result": "0.03 to 1", "unit": "µg/mL"}, {"measurement": "MIC range", "setting": "pneumococci [4]; agar dilution, 39 ciprofloxacin-resistant strains (ciprofloxacin MIC ≧8.0 μg/ml), listed as gemifloxacin", "result": "0.03 to 1.0", "unit": "µg/mL"}, {"measurement": "MIC range", "setting": "pneumococci [4]; [8]", "result": "0.004 to 0.06", "unit": "µg/mL"}, {"measurement": "MIC50", "setting": "pneumococci [5]; Streptococcus pneumoniae", "result": 0.016, "unit": "µg/mL"}, {"measurement": "MIC90", "setting": "pneumococci [5]; Streptococcus pneumoniae", "result": 0.125, "unit": "µg/mL"}, {"measurement": "MIC range", "setting": "pneumococci [5]", "result": "0.004 to 0.5", "unit": "µg/mL"}]}]}
